# From patent publication US20240010685A1, “RNA SENSORS AND USES THEREOF” (YISSUM RESEARCH DEVELOPMENT COMPANY OF THE HEBREW …, priority 2020, published 2024)
# Several values for one entry are separate records, joined by “and”; a condition that tells them apart may be missing. Equal values may be shown once.
# Experiments:
# CCAT1 = test: fluorescence of CCAT1 FIT-PNA with RNA; details: [RNA]=1.5 μM and [FIT-PNA]=1 μM
# Source text: Methylating the N-7 position of Guanosine base of a PNA monomer (G+ PNA monomer) results in an improvement in the hybridization to complementary DNA whilst avoiding PNA:PNA inter- and intra-duplex formation. As enhancement of FIT-PNA fluorescence depends on the ratio between ss/ds forms (PNA/PNA:RNA), lowering the background fluorescence of ssPNA should result in greater sensitivity (i.e. increased fluorescence enhancement). In the ss form, the FIT-PNA has low background fluorescence due to […] interactions between the aromatic BisQ and adjacent aromatic PNA monomers (especially purines: G and A). As BisQ has a delocalized positive charge (from nitrogen to nitrogen), the introduction of an adjacent positive charge on G or A causes electrostatic repulsion between BisQ and G+/A+ resulting in reduced background fluorescence. […] Data points to both a decrease in signal background of ssFIT-PNA and to an increase in fluorescence in duplex form (FIT-PNA:RNA) in comparison to non-modified CCAT1 FIT-PNA (FIG. 7). […]
# In some embodiments, the modified or charged bases, G^+ and A^+, may be provided with a cp group positioned in their vicinity or as a cpG^+or cpA^+ monomer, in similarity to cpBisQ (Scheme 4). […] Data points to an increase in fluorescence in duplex form (FIT-PNA:RNA) in comparison to non-modified CCAT1 FIT-PNA as well as G+ and cpG modified CCAT1 FIT-PNA sequences (FIG. 8). […]
# [1] = test system: BRAF V600E point mutation; test: fluorescence spectra of BRAF FIT-PNA with fully matched RNA (mutant) and mis-match RNA (WT); details: 1 μM PNA
# Source text: The data points to the added value of introducing the PEG8 linker. Clearly, the addition of the PEG8 linker improves the signal for fully matched RNA without losing the discrimination for the SNP. The addition of cpPNAs on both sides of BisQ (Table 2) results in an increased fluorescence in signal with mutant RNA (FIG. 6), however, the signal for WT RNA (with mismatch) also increases. This leads to some loss of discrimination for this SNP.
# FIGS. 5A-B depict the added value of the PEG8 linker. Fluorescence spectra of CLIP6 FIT-PNA (5A, right) and, CLIP6-PEG8-FIT-PNA (5B, left) with fully matched RNA (mutant) and mis-match RNA (WT).
# FIG. 6 depicts the increase in fluorescence for BRAF FIT-PNA substituted with cp. Fluorescence spectra of CLIP6-PEG8-cpFIT-PNA (1 μM) with fully matched RNA (mutant, (1.5 μM)) and mis-match RNA (WT, (1.5 μM)). A two-fold increase in fluorescence is obtained in comparison to the non-modified FIT-PNA (CLIP6-PEG8-FIT-PNA). An 18-fold enhancement in fluorescence is observed for CLIP6-PEG8-cpFIT-PNA in duplex form (with complementary RNA) in comparison to single strand.
# complementary RNA [2] = test: photophysical properties of duplex cpFIT-PNAs with complementary RNA (fluorescence spectrometry); type: physicochemical; details: for BR (brightness) / εmax / λmax, abs / Φ (quantum yield, QY): duplex with complementary RNA; for Φ (quantum yield, QY): relative to Cresyl Violet, 3 μM FIT-PNA in PBS pH 7; for I/I0: fluorescence enhancement, duplex with complementary RNA vs single strand; for enhancement upon duplex formation with complementary RNA: [FIT-PNA]=3 μM, [RNA]=4.5 μM
# Procedure: (A) set 1 showing fluorescence of FIT-PNA:RNA duplex for FIT-PNAs 1-4, (B) set 2 showing fluorescence of FIT-PNA:RNA duplex for FIT-PNAs 5-7 and, (C) enhanced fluorescence of bis-cpFIT-PNAs (4 and 7) after RNA hybridization. [FIT-PNA]=[cpFIT-PNA]=3 μM, [RNA]=4.5 μM.
# Fluorescence spectra were recorded by using a Jasco FT-6500 spectrometer. Measurements were carried out in fluorescence quartz cuvettes (10 mm) at a 3 μM concentration of FIT-PNA in a PBS buffered solution (100 mM NaCl, 10 mM NaH2PO4, pH 7). Quantum yields were determined relative to Cresyl Violet in PBS^3. PNAs were hybridized to complementary RNA using a 1:1.5 mixture of PNA:RNA at 37° C. for 1-2 hr. Samples were excited at 575 nm and emission spectra were recorded at 585-800 nm.
# complementary RNA [3] = test: Tm of RNA:PNA duplexes (duplex stability); type: binding; parameters: ΔTm: unit not given here; details: for Tm: RNA:PNA duplex; for ΔTm: vs unmodified control FIT-PNA of the set (1 or 5)
# Procedure: In addition, the enhancement upon duplex formation with complementary RNA observed for these FIT-PNAs (4 and 7) was quite dramatic; 47-fold for FIT-PNA 7 and 46-fold for FIT-PNA 4 (FIG. 1B). The effect of cpPNA monomers to duplex stability was assessed by measuring Tm for all RNA:PNA duplexes (Table 2). The stabilizing effect was smaller for FIT-PNA in comparison to that reported for cpPNA. It is believed that this is due to the close proximity of the modified bases to the bulkier BisQ surrogate base in comparison to natural bases. For all measurements an additional transition at 60° C. was observed.
# [4] = test system: 11-mer RNAs with all three possible mismatches; test: mismatch sensitivity of cpFIT-PNAs, plate reader; type: binding
# Procedure: Mismatch sensitivity was evaluated for single and doubly modified cpFIT-PNAs. Mismatch sensitivity for mono-substituted cpPNAs (cpFIT-PNAs 2, 3, and 6) are presented in FIGS. 3A-B. Double substituted cpFIT PNAs 4 and 7 were compared to FIT-PNA controls (1 and 5) and are presented in FIGS. 2A-B. 11-mer RNAs with all three possible mismatches were introduced either at 3′ (to the left of BisQ) or 5′ (to the right of BisQ) positions opposite to the nearby base to BisQ. One clear observation is that cpFIT-PNAs have significant selectivity for pyrimidine-pyrimidine mismatches (CC, TU, TC, CU where underlined base refers to PNA base) in comparison to FIT-PNA controls with the exception of the CU mismatch for cpFIT-PNA 4. For cpFIT-PNA 7, TC and TU mismatches are discriminated by a factor of 7.5 and 13.9-fold (vs. full matched RNA), respectively. This is around a 3 to 5-fold increase with respect to non-modified FIT-PNA 5.
# (A) double cpFIT-PNA 4 compared to FIT-PNA 1 and (B) double cpFIT-PNA 7 compared to FIT-PNA 5. FIT-PNAs were annealed to all possible 11-mer RNAs and measured on a plate reader (λex=575 λnm, Em=619 nm, n=3). [FIT-PNA]=[cpFIT-PNA]=0.5 μM, [RNA]=0.75 μM.
# FIGS. 3A-B provide mismatch sensitivity of single substituted cpFIT-PNAs. (A) cpFIT-PNA 2 and 3 and (B) cpFIT-PNA 6. FIT-PNAs (0.5 μM) were annealed to all possible 11-mer RNAs (0.75 μM) and measured on a plate reader (λex=575 nm, λem=619 nm, n=3).
# (§1) Fluorescence end points were recorded by using a Cytation 3 plate reader. Measurements were carried out in Greiner 96 well black plates with flat bottom, at 0.5 μM concentration in a PBS buffered solution (100 mM NaCl, 10 mM NaH2PO4, pH 7). FIT-PNAs were hybridized to complementary RNA using a 1:1.5 mixture of PNA:RNA at 37° C. for 1-2 hr or by allowing overnight incubation at RT (for limit of detection (LOD) measurements). Samples were excited at 575 nm and measured at 615 nm.
# complementary RNA [5] = test: limit of detection (LOD) measurements, plate reader; details: overnight incubation at RT
# Procedure: As used herein, the term “amount” made in reference to presence of an SOI in a sample, refers to a quantity of the SOI that is sufficient to interact with a conjugate of the invention to provide a measurable signal. This amount is in the low nM range as shown for FIT-PNA 7 (Table 2).
# as §1
BR (brightness) (complementary RNA [2]),εmax (complementary RNA [2]),"λmax, abs (complementary RNA [2])","Φ (quantum yield, QY) (complementary RNA [2])",Substance,increase in fluorescence (CCAT1),enhancement in fluorescence in duplex form (with complementary RNA) in comparison to single strand ([1]; 1.5 μM RNA),increase in fluorescence in comparison to the non-modified FIT-PNA (CLIP6-PEG8-FIT-PNA) ([1]; 1.5 μM fully matched RNA (mutant)),I/I0 (complementary RNA [2]),Tm (complementary RNA [3]),ΔTm (complementary RNA [3]),enhancement upon duplex formation with complementary RNA (complementary RNA [2]),increase in TC/TU mismatch discrimination with respect to non-modified FIT-PNA 5 [4],"TC mismatch discrimination vs. full matched RNA ([4]; 0.5 μM FIT-PNA, 0.75 μM RNA)","TU mismatch discrimination vs. full matched RNA ([4]; 0.5 μM FIT-PNA, 0.75 μM RNA)",amount of SOI sufficient to provide a measurable signal (complementary RNA [5])
,,,,CCAACCT-BisQ-G^+TAAGTG-dK4 [G^+ modified CCAT1 FIT-PNA],7 fold,,,,,,,,,,
,,,,CCAACCT-BisQ-cpG^+TAAGTG-dK4 [cpG^+ modified CCAT1 FIT-PNA],10 fold,,,,,,,,,,
,,,,GATTcpT-BisQ-TCTGTAGCTAC-PEG8-CLIP6 [CLIP6-PEG8-cpFIT-PNA],,18 fold,two-fold,,,,,,,,
15 mM⁻¹ cm⁻¹ and 15.0 mM⁻¹ cm⁻¹,83.2 mM⁻¹ cm⁻¹,588 nm,0.18,"^3′(4)KD-ATA-C-BisQ-TACAAC-^5′ [FIT-PNA 1, reference compound]",,,,12,50.2 °C,,,,,,
16.4 mM⁻¹ cm⁻¹,91.0 mM⁻¹ cm⁻¹,590 nm,0.18,^3′(4)KD-ATA-C-BisQ-cpT-ACAAC-5′ [FIT-PNA 2],,,,15,53.7 °C,(+3.5),,,,,
28.3 mM⁻¹ cm⁻¹,85.8 mM⁻¹ cm⁻¹,590 nm,0.33,^3′(4)KD-ATA-cpC-BisQ-cpT-ACAAC-5′ [FIT-PNA 4],,,,46,54.7 °C,(+4.5),46 fold,,,,
25.7 mM⁻¹ cm⁻¹,95.2 mM⁻¹ cm⁻¹,589 nm,0.27,^3′(4)KD-ATA-cpT-BisQ-T-ACAAC-^5′ [FIT-PNA 3],,,,12,53.7 °C,(+3.5),,,,,
16.5 mM⁻¹ cm⁻¹,82.3 mM⁻¹ cm⁻¹,587 nm,0.20,"^3′(4)KD-ATACA-T-BisQ-C-AAC-^5′ [FIT-PNA 5, reference compound]",,,,24,51.8 °C,,,,,,
29.1 mM⁻¹ cm⁻¹,85.7 mM⁻¹ cm⁻¹,586 nm,0.34,^3′(4)KD-ATACA-cpT-BisQ-C-AAC-^5′ [FIT-PNA 6],,,,46,53 °C,(+1.2),,,,,
35.3 mM⁻¹ cm⁻¹,90.6 mM⁻¹ cm⁻¹,586 nm,0.39,^3′(4)KD-ATACA-cpT-BisQ-cpC-AAC-^5′ [FIT-PNA 7],,,,47,52.9 °C,(+1.1),47 fold,3 to 5 fold,7.5 fold,13.9 fold,low nM range
